Experimental data from US20030134880A1, “Novel cd23 inhibitors” (priority 2000, published 2003).

Biological target: T1, human recombinant collagenase (Homo sapiens, UniProt P03956)
T1 construct: made in house; host or cells: E. coli
T1 sequence (P03956 100-469): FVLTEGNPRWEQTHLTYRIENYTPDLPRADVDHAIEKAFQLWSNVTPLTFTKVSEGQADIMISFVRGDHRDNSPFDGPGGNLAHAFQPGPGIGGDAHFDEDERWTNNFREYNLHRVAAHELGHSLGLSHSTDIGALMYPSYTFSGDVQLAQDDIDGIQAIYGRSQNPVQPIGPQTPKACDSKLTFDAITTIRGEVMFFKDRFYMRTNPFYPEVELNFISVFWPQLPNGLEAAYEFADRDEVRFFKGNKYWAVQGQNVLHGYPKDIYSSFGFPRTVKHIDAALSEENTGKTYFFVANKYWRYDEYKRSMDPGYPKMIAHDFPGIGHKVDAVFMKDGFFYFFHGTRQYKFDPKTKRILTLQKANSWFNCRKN
Test: Collagenase inhibition assay
Format: biochemical
Details: acetylated 3H type 1 bovine collagen, 37° C., 18 h
Method: Procedure 2: The ability of test compounds to inhibit collagenase was investigated using the following procedure.
Collagenase Inhibition Assay:
The potency of compounds to act as inhibitors of collagenase was determined by the method of Cawston and Barrett (Anal. Biochem. 99, 340-345, 1979), hereby incorporated by reference, whereby a 1 mM solution of the inhibitor being tested or dilutions thereof, was incubated at 37° C. for 18 h with collagen and human recombinant collagenase, from synovial fibroblasts cloned, expressed and purified from E. Coli, (buffered with 150 mM Tris, pH 7.6. containing 15 mM calcium chloride, 0.05% Brij 35.200 mM sodium chloride and 0.02% sodium azide). The collagen was acetylated ^3H type 1 bovine collagen prepared by the method of Cawston and Murphy (methods in Enzymology 80. 711,1981) The samples were centrifuged to sediment undigested collagen and an aliquot of the radioactive supernatant removed for assay on a scintillation counter as a measure of hydrolysis. The collagenase activity in the presence of 1 mM inhibitor, or dilution thereof, was compared to activity in a control devoid of inhibitor and the results reported as that concentration effecting 50% of the collagenase (IC50).

| IC50 | SMILES |
| --- | --- |
| ≤ 10 µM | CC(C)C[C@H](C(=O)NO)N(Cc1cccnc1)S(=O)(=O)Cc1ccc2sccc2c1 [Example 8] |
| ≤ 10 µM | COCCOCCN([C@@H](C(=O)NO)c1ccccc1)S(=O)(=O)Cc1ccc2sccc2c1 [Example 1, (R)-2-{(Benzo[b]thiophen-5-ylmethanesulfonyl)[2-(2-methoxyethoxy)-ethyl]amino}-N-hydroxy-2-phenylacetamide] |
| ≤ 10 µM | O=C(NO)C(c1ccccc1)N(Cc1cccnc1)S(=O)(=O)Cc1ccc2sccc2c1 (racemic) [Example 2, (R,S)-2-[(Benzo[b]thiophen-5-ylmethanesulfonyl)(pyridin-3-ylmethyl)-amino]-N-hydroxy-2-phenylacetamide] |
| ≤ 10 µM | O=C(NO)[C@@H](C1CCCCC1)N(Cc1ccco1)S(=O)(=O)Cc1ccc2sccc2c1 [Example 14, (R)-2-[(Benzo[b]thiophen-5-ylmethanesulfonyl)(furan-2-ylmethyl)-amino]-2-cyclohexyl-N-hydroxy-acetamide] |
